Experimental data taken from US8952024B2, “Herbicidal pyrimidone derivatives” (E I du Pont de Nemours and Company, priority 2009, dated 2015).

Experiments:
Type in all cases: in vivo
[1] = tested on: velvetleaf (Abutilon theophrasti); experiment: Test A pre-/postemergence plant response
Text: (§1) Seeds of barnyardgrass (Echinochloa crus-galli), large crabgrass (Digitaria sanguinalis), giant foxtail (Setaria faberii), morningglory (Ipomoea spp.), pigweed (Amaranthus retroflexus), velvetleaf (Abutilon theophrasti), wheat (Triticum aestivum) and corn (Zea mays) were planted into a blend of loam soil and sand and treated preemergence with a directed soil spray using test chemicals formulated in a non-phytotoxic solvent mixture which included a surfactant. At the same time these species were also treated with postemergence applications of test compounds formulated in the same manner.
(§2) Plants ranged in height from two to ten cm and were in the one- to two-leaf stage for the postemergence treatment. Treated plants and untreated controls were maintained in a greenhouse for approximately ten days, after which time all treated plants were compared to untreated controls and visually evaluated for injury. Plant response ratings, summarized in Table A, are based on a 0 to 100 scale where 0 is no effect and 100 is complete control. A dash (-) response means no test result.

[2] = tested on: corn (Zea mays); experiment: Test A pre-/postemergence plant response
Text: as §1, §2

[3] = tested on: giant foxtail (Setaria faberii); experiment: Test A pre-/postemergence plant response
Text: as §1, §2

[4] = tested on: wheat (Triticum aestivum); experiment: Test A pre-/postemergence plant response
Text: as §1, §2

[5] = tested on: pigweed (Amaranthus retroflexus); experiment: Test A pre-/postemergence plant response
Text: as §1, §2

[6] = tested on: morningglory (Ipomoea spp.); experiment: Test A pre-/postemergence plant response
Text: as §1, §2

[7] = tested on: large crabgrass (Digitaria sanguinalis); experiment: Test A pre-/postemergence plant response
Text: as §1, §2

[8] = tested on: barnyardgrass (Echinochloa crus-galli); experiment: Test A pre-/postemergence plant response
Text: as §1, §2

[9] = tested on: umbrella sedge (Cyperus difformis); experiment: Test B flooded paddy test; conditions: for Plant response rating, Sedge, Umbrella: Flood (flooded paddy test), 13 to 15 days; for Plant response rating, Flood, Sedge, Umbrella: 250 g ai/ha, flooded paddy test, visual rating on 0 to 100 scale (0 no effect, 100 complete control) after 13 to 15 days
Text: (§3) Plant species in the flooded paddy test consisted of rice (Oryza sativa), umbrella sedge (Cyperus difformis), ducksalad (Heteranthera limosa) and barnyardgrass (Echinochloa crus-galli) grown to the 2-leaf stage for testing. At the time of treatment, test pots were flooded with water to 3 cm above the soil surface, treated by application of test compounds directly to the paddy water, and then maintained at that water depth for the duration of the test.
(§4) Treated plants and controls were maintained in a greenhouse for 13 to 15 days, after which time all treated plants were visually evaluated and compared to controls. Plant response ratings, summarized in Table B, are based on a scale of 0 to 100 where 0 is no effect and 100 is complete control. A dash (-) response means no test result.

[10] = tested on: rice (Oryza sativa); experiment: Test B flooded paddy test; conditions: for Plant response rating, Rice: Flood (flooded paddy test), 13 to 15 days; for Plant response rating, Flood, Rice: 250 g ai/ha, flooded paddy test, visual rating on 0 to 100 scale (0 no effect, 100 complete control) after 13 to 15 days
Text: as §3, §4

[11] = tested on: ducksalad (Heteranthera limosa); experiment: Test B flooded paddy test; conditions: for Plant response rating, Ducksalad: Flood (flooded paddy test), 13 to 15 days; for Plant response rating, Flood, Ducksalad: 250 g ai/ha, flooded paddy test, visual rating on 0 to 100 scale (0 no effect, 100 complete control) after 13 to 15 days
Text: as §3, §4

[12] = tested on: barnyardgrass (Echinochloa crus-galli); experiment: Test B flooded paddy test; conditions: for Plant response rating, Barnyardgrass: Flood (flooded paddy test), 13 to 15 days; for Plant response rating, Flood, Barnyardgrass: 250 g ai/ha, flooded paddy test, visual rating on 0 to 100 scale (0 no effect, 100 complete control) after 13 to 15 days
Text: as §3, §4

[13] = Postemergence, 125 g ai/ha, 0 to 100 scale where 0 is no effect and 100 is complete control
[14] = Postemergence, 500 g ai/ha, visual injury, 0 to 100 scale (0 no effect, 100 complete control), approx. ten days
[15] = Preemergence, 125 g ai/ha, 0 to 100 scale, 0 = no effect, 100 = complete control
[16] = Preemergence, 500 g ai/ha, 0 to 100 scale, 0 = no effect, 100 = complete control
[17] = 125 g ai/ha, scale 0 to 100, 0 is no effect, 100 is complete control
[18] = Flood, 31 g ai/ha, scale 0 to 100 (0 no effect, 100 complete control)
[19] = Postemergence, 125 g ai/ha, visual injury, 0 to 100 scale (0 no effect, 100 complete control), approx. ten days
[20] = Postemergence, 500 g ai/ha, 0 to 100 scale, 0 = no effect, 100 = complete control, approx. ten days
[21] = Preemergence, 500 g ai/ha, visual injury, 0 to 100 scale (0 no effect, 100 complete control), approx. ten days
[22] = 31 g ai/ha, scale of 0 to 100 where 0 is no effect and 100 is complete control
[23] = 62 g ai/ha, scale 0 to 100, 0 is no effect, 100 is complete control

`O=C1CCCC(O)=C1C(=O)c1cnc(-c2ccccc2)n(C2CC[S+]([O-])CC2)c1=O` (mixture of isomers) [Compound 168, 5-[(2-hydroxy-6-oxo-1-cyclohexen-1-yl)carbonyl]-2-phenyl-3-(cis/trans-tetrahydro-1-oxido-2H-thiopyran-4-yl)-4(3H)-pyrimidinone] was tested, and the “Plant response rating, Velvetleaf” value [1, 13] was 100, the “Velvetleaf plant response rating” value [1, 14] was 100 and the “Plant response rating, Velvetleaf” value [1, 15] was 0. The “Plant response rating, Velvetleaf” value [1, 16] was 60, the “Plant response rating, Corn” value [2, 13] was 20 and the “Corn plant response rating” value [2, 14] was 30. The “Plant response rating, Corn” value [2, 15] was 0, the “Plant response rating, Corn” value [2, 16] was 0 and the “Plant response rating, Foxtail, Giant” value [3, 13] was 50. For the same compound, the “Foxtail, Giant plant response rating” value [3, 14] was 90, the “Plant response rating, Foxtail, Giant” value [3, 15] was 10 and the “Plant response rating, Foxtail, Giant” value [3, 16] was 70. For the same compound, the “Plant response rating, Wheat” value [4, 13] was 0, the “Wheat plant response rating” value [4, 14] was 50 and the “Plant response rating, Wheat” value [4, 15] was 0. The “Plant response rating, Wheat” value [4, 16] was 0, the “Plant response rating, Pigweed” value [5, 13] was 100 and the “Pigweed plant response rating” value [5, 14] was 100. The “Plant response rating, Pigweed” value [5, 15] was 10, the “Plant response rating, Pigweed” value [5, 16] was 50 and the “Plant response rating, Morningglory” value [6, 13] was 100. For the same compound, the “Morningglory plant response rating” value [6, 14] was 100, the “Plant response rating, Morningglory” value [6, 15] was 0 and the “Plant response rating, Morningglory” value [6, 16] was 70. The “Plant response rating, Crabgrass, Large” value [7, 13] was 50, the “Crabgrass, Large plant response rating” value [7, 14] was 90 and the “Plant response rating, Crabgrass, Large” value [7, 15] was 30. For the same compound, the “Plant response rating, Crabgrass, Large” value [7, 16] was 80, the “Plant response rating, Barnyardgrass” value [8, 13] was 30 and the “Barnyardgrass plant response rating” value [8, 14] was 100. For the same compound, the “Plant response rating, Barnyardgrass” value [8, 15] was 0, the “Plant response rating, Barnyardgrass” value [8, 16] was 20 and the “Plant response rating, Sedge, Umbrella” value [9, 17] was 20. The “Sedge, Umbrella plant response rating” value [9, 18] was 0, the “Plant response rating, Rice” value [10, 17] was 0 and the “Rice plant response rating” value [10, 18] was 0. For the same compound, the “Plant response rating, Ducksalad” value [11, 17] was 30, the “Ducksalad plant response rating” value [11, 18] was 0 and the “Plant response rating, Barnyardgrass” value [12, 17] was 0. The “Barnyardgrass plant response rating” value [12, 18] was 0.

With `CCn1ncc(C(=O)c2cnc(-c3ccccc3)n(-c3ccccc3)c2=O)c1OS(=O)(=O)c1ccc(C)cc1` [Compound 16] the “Velvetleaf plant response rating” value [1, 19] was 70, the “Plant response rating, Velvetleaf” value [1, 20] was 100 and the “Plant response rating, Velvetleaf” value [1, 15] was 0. For the same compound, the “Plant response rating, Velvetleaf” value [1, 21] was 40, the “Corn plant response rating” value [2, 19] was 0 and the “Plant response rating, Corn” value [2, 20] was 20. For the same compound, the “Plant response rating, Corn” value [2, 15] was 0, the “Plant response rating, Corn” value [2, 21] was 20 and the “Foxtail, Giant plant response rating” value [3, 19] was 30. For the same compound, the “Plant response rating, Foxtail, Giant” value [3, 20] was 70, the “Plant response rating, Foxtail, Giant” value [3, 15] was 30 and the “Plant response rating, Foxtail, Giant” value [3, 21] was 70. The “Wheat plant response rating” value [4, 19] was 0, the “Plant response rating, Wheat” value [4, 20] was 10 and the “Plant response rating, Wheat” value [4, 15] was 0. The “Plant response rating, Wheat” value [4, 21] was 0, the “Pigweed plant response rating” value [5, 19] was 50 and the “Plant response rating, Pigweed” value [5, 20] was 70. For the same compound, the “Plant response rating, Pigweed” value [5, 15] was 30, the “Plant response rating, Pigweed” value [5, 21] was 50 and the “Morningglory plant response rating” value [6, 19] was 10. The “Plant response rating, Morningglory” value [6, 20] was 20, the “Plant response rating, Morningglory” value [6, 15] was 0 and the “Plant response rating, Morningglory” value [6, 21] was 0. For the same compound, the “Crabgrass, Large plant response rating” value [7, 19] was 10, the “Plant response rating, Crabgrass, Large” value [7, 20] was 40 and the “Plant response rating, Crabgrass, Large” value [7, 15] was 40. The “Plant response rating, Crabgrass, Large” value [7, 21] was 70, the “Barnyardgrass plant response rating” value [8, 19] was 20 and the “Plant response rating, Barnyardgrass” value [8, 20] was 60. The “Plant response rating, Barnyardgrass” value [8, 15] was 0, the “Plant response rating, Barnyardgrass” value [8, 21] was 70 and the “Plant response rating, Flood, Sedge, Umbrella” value [9] was 50. The “Plant response rating, Sedge, Umbrella” value [9, 22] was 0, the “Plant response rating, Sedge, Umbrella” value [9, 23] was 0 and the “Plant response rating, Sedge, Umbrella” value [9, 17] was 40. For the same compound, the “Plant response rating, Flood, Rice” value [10] was 10, the “Plant response rating, Rice” value [10, 22] was 0 and the “Plant response rating, Rice” value [10, 23] was 0. For the same compound, the “Plant response rating, Rice” value [10, 17] was 0, the “Plant response rating, Flood, Ducksalad” value [11] was 75 and the “Plant response rating, Ducksalad” value [11, 22] was 0. The “Plant response rating, Ducksalad” value [11, 23] was 40, the “Plant response rating, Ducksalad” value [11, 17] was 75 and the “Plant response rating, Flood, Barnyardgrass” value [12] was 10. For the same compound, the “Plant response rating, Barnyardgrass” value [12, 22] was 0, the “Plant response rating, Barnyardgrass” value [12, 23] was 0 and the “Plant response rating, Barnyardgrass” value [12, 17] was 0.

With `O=C1CCCC(O)=C1C(=O)c1cnc(-c2ccccc2)n(-c2cccc(F)c2)c1=O` [Compound 22] the “Velvetleaf plant response rating” value [1, 19] was 100, the “Plant response rating, Velvetleaf” value [1, 20] was 100 and the “Plant response rating, Velvetleaf” value [1, 15] was 30. The “Plant response rating, Velvetleaf” value [1, 21] was 100, the “Corn plant response rating” value [2, 19] was 0 and the “Plant response rating, Corn” value [2, 20] was 40. For the same compound, the “Plant response rating, Corn” value [2, 15] was 0, the “Plant response rating, Corn” value [2, 21] was 0 and the “Foxtail, Giant plant response rating” value [3, 19] was 30. For the same compound, the “Plant response rating, Foxtail, Giant” value [3, 20] was 80, the “Plant response rating, Foxtail, Giant” value [3, 15] was 20 and the “Plant response rating, Foxtail, Giant” value [3, 21] was 80. For the same compound, the “Wheat plant response rating” value [4, 19] was 0, the “Plant response rating, Wheat” value [4, 20] was 0 and the “Plant response rating, Wheat” value [4, 15] was 0. For the same compound, the “Plant response rating, Wheat” value [4, 21] was 0, the “Pigweed plant response rating” value [5, 19] was 80 and the “Plant response rating, Pigweed” value [5, 20] was 100. The “Plant response rating, Pigweed” value [5, 15] was 70, the “Plant response rating, Pigweed” value [5, 21] was 90 and the “Morningglory plant response rating” value [6, 19] was 30. The “Plant response rating, Morningglory” value [6, 20] was 100, the “Plant response rating, Morningglory” value [6, 15] was 20 and the “Plant response rating, Morningglory” value [6, 21] was 70. The “Crabgrass, Large plant response rating” value [7, 19] was 40, the “Plant response rating, Crabgrass, Large” value [7, 20] was 80 and the “Plant response rating, Crabgrass, Large” value [7, 15] was 40. For the same compound, the “Plant response rating, Crabgrass, Large” value [7, 21] was 90, the “Barnyardgrass plant response rating” value [8, 19] was 10 and the “Plant response rating, Barnyardgrass” value [8, 20] was 70. The “Plant response rating, Barnyardgrass” value [8, 15] was 10, the “Plant response rating, Barnyardgrass” value [8, 21] was 100 and the “Plant response rating, Flood, Sedge, Umbrella” value [9] was 65. For the same compound, the “Plant response rating, Sedge, Umbrella” value [9, 22] was 0, the “Plant response rating, Sedge, Umbrella” value [9, 23] was 30 and the “Plant response rating, Sedge, Umbrella” value [9, 17] was 40. For the same compound, the “Plant response rating, Flood, Rice” value [10] was 0, the “Plant response rating, Rice” value [10, 22] was 0 and the “Plant response rating, Rice” value [10, 23] was 0. The “Plant response rating, Rice” value [10, 17] was 0, the “Plant response rating, Flood, Ducksalad” value [11] was 60 and the “Plant response rating, Ducksalad” value [11, 22] was 0. The “Plant response rating, Ducksalad” value [11, 23] was 20, the “Plant response rating, Ducksalad” value [11, 17] was 30 and the “Plant response rating, Flood, Barnyardgrass” value [12] was 0. The “Plant response rating, Barnyardgrass” value [12, 22] was 0, the “Plant response rating, Barnyardgrass” value [12, 23] was 0 and the “Plant response rating, Barnyardgrass” value [12, 17] was 0.
